Experimental data: US20180133194A1, “METHOD OF TREATING INFLAMMATION USING NATURAL COMPOUNDS AND/OR DIET” (UNIVERSITY OF FLORIDA RESEARCH FOUNDATION, INCORPORATED, priority 2015, published 2018)

Legend:
hypoxic-ischemic injury = settings: neonatal rat, cited from earlier work
[1] = in vivo; cited from earlier work
[2] = cited from earlier work
inflammatory cytokines = experiment: Cytokine array (RodentMAP) on plasma in paclitaxel-induced model of inflammation; assay type: in vivo, mice; settings: compared to control; for macrophage-derived chemokine [MDC/CCL22] level: paclitaxel alone
Method: FIG. 1. Using a drug induced model of inflammation, a cytokine array was used to measure inflammatory cytokines, immune system alteration and the ability of our treatment to attenuate and re-establish normal status. Plasma was isolated from mice treated with the different treatments (control, paclitaxel [PTX, 40 mg/kg], NU.001[CS] and PTX+NU.001[PTX+CS]). * indicates p<0.05 and ** indicates p<0.01, one-way ANOVA or t-test, compared to control. # indicates p<0.05 and ## indicates p<0.01, one-way ANOVA or t-test, compared to PTX.
FIG. 2. NU.001 reduces inflammatory signals in a drug-induced model of inflammation. Animals received oral delivery of NU.001 for 3-4 weeks or a control diet. The microtubule stabilizing agent paclitaxel [40 mg/kg cumulative] was administered to induce inflammation. A cytokine array was used to measure inflammation and immune system status and assess the ability of NU.001 to attenuate or re-establish normal cytokine levels. Plasma was isolated from mice treated with the different treatments (control, paclitaxel, NU.001, and paclitaxel+NU.001). […] Treatment composition is as follows: [1] Control=55% carbohydrates, 30% proteins, 15% fat, [2]
FIGS. 4A-4B. NU.001 increases levels of Leukemia inhibitory factor [LIF] and CCL22. A. After being fed for 3-4 weeks with control diet or NU.001 diet, plasma was isolated for cytokine screening. […] LIF has been proposed to prevent or treat peripheral neuropathy. *, p <0.05, t-test.
The chemotherapeutic agent paclitaxel was used to induce inflammation. Animals were stressed by treating with paclitaxel [40 mg/kg cumulative], resulting in changes in a number of cytokines and related molecules involved in inflammation processes. Animals were treated with NU.001 for 3-4 weeks and blood was taken for plasma isolation. A panel of cytokines was screened using RodentMAP [Myriad/RBM].
Levels of Leukemia inhibitory factor (LIF) were compared in animals treated with control diet or NU.001 diets. After 4 weeks of treatment, blood was taken and plasma was isolated to measure levels of cytokines. […]

[3] = oral doses as high as 500 mg/kg, rodents; cited from earlier work
[4] = 500 mg/kg/day, divided dosage, 13 weeks, pre-fed dogs; cited from earlier work

C[S+]([O-])CCCCN=C=S (stereo not drawn) [SFN, sulforaphane]
infarct ratio (hypoxic-ischemic injury; at 24 hours after hypoxic ischemia): reduced | expression of Nrf2 antioxidative transcription factor in the brain (hypoxic-ischemic injury; hypoxic-ischemic injury): increased | number of apoptotic cells (hypoxic-ischemic injury; hypoxic-ischemic injury): significantly decreased | terminal elimination phase [1]: long | time to peak plasma levels [1]: ≤ 2 h | safety of dose ([2]; 100 mg SFN from oral intake of 68 grams of broccoli sprouts): safe non-toxic | adverse effects of administration in humans ([2]; SFN or SFN-enriched dietary origin items such as broccoli sprouts): not demonstrated any significant adverse effects

CC(=O)O[C@H]1C(=O)[C@@]2(C)[C@H]([C@H](OC(=O)c3ccccc3)[C@]3(O)C[C@H](OC(=O)[C@H](O)[C@@H](NC(=O)c4ccccc4)c4ccccc4)C(C)=C1C3(C)C)[C@]1(OC(C)=O)CO[C@@H]1C[C@@H]2O [paclitaxel]
inflammation related cytokines (inflammatory cytokines; paclitaxel 40 mg/kg cumulative alone): up-regulated | macrophage-derived chemokine [MDC/CCL22] level (inflammatory cytokines): Lower levels | macrophage-derived chemokine [MDC/CCL22] level (inflammatory cytokines; listed as Paclitaxel): decrease

epigallocatechin-3-gallate [EGCG]
genotoxicity and short term toxicity [3]: no genotoxic or short term toxicity | adverse events or toxicity [4]: no adverse events or toxicity
